Where no end group is shown, it is not given here.

The target in series [1] is complex of peptide 25 (aa 240-254) of M. tuberculosis Ag85B and the mouse MHC II allele I-A^b (Mycobacterium tuberculosis; mouse) (UniProt P14434). Description: cell-based or functional assay.
The conditions of series [2]: mouse, in vivo; for signs of toxicity: iv.

Take “P25TCR transgenic T-cell antigen receptor (on P25TCRTh1 CD4+ Th1 effector cells from P25TCR-Tg mice)”: the frequency of IFN-γ+ P25TCRTh1 cells in the lungs of H37Rv-infected mice six hours after intravenous peptide 25 in series [1] is 20 to 50%.

For “ISQAVHAAHAEINEAGR [OVA peptide, ISQAVHAAHAEINEAGR, reference compound]”, in series [2], the signs of toxicity result was “Neither group of mice displayed any signs of toxicity”.

As for “FQDAYNAAGGHNAVF [peptide 25, FQDAYNAAGGHNAVF]”, in series [2], the morbidity or mortality result was “no morbidity or mortality was observed” and the signs of toxicity entry is reported as “Neither group of mice displayed any signs of toxicity”.
